assay: HPLC quantification of red blood cell MTXPG concentrations in rheumatoid arthritis patients on low-dose MTX therapy, with regression on age, dose, route and RFC-1/GGH genotype; format: in vivo, human; settings: multivariate linear regression, route p<0.04
Experimental: The study was cross-sectional at three investigational sites (The Center of Rheumatology, Albany, N.Y.; Rheumatology Practice, Knoxville, Tenn.; Radiant Research, Daytona Beach, Fla.). To be eligible, patients (≧18 yrs.) had to meet the revised criteria of the American Rheumatism Association for Rheumatoid Arthritis and had to have received low-dose MTX therapy for at least three months. Other medications included low-dose corticosteroids (<10 mg day) and folic acid supplementation for the prevention of side-effects induced by MTX. Local Institutional Review Board approved the study and patient consent was obtained for each patient. Patients' demographics were collected at the time of enrollment in the study. Blood was drawn in EDTA-containing tubes and shipped overnight to Prometheus Laboratories Inc. (San Diego, Calif.) for analysis.
Red blood cell MTXPG concentrations were measured as described previously using an HPLC-fluorometry procedure with a post-column photo-oxidation technique (Dervieux et al., Clin. Chem., 49:1632-1641 (2003)). Results are expressed in nmol/L as either total MTXPG1-5 levels or total long-chain MTXG3-5 levels (i.e., the sum of MTXP3+MTXPG4+MTXPG5 levels).
The statistical analysis consisted of a multivariate linear or logistic regression, with MTXPG levels (i.e., MTXPG1-5, MTXPG3-5) as dependent variables and predictors (i.e., age, weekly MTX dose, route of administration, and RFC-1 and GGH genotypes) as independent variables. For calculating a pharmacogenetic index, the genotypes were dichotomized as homozygous mutants (RFC-1 80A/A and GGH −401T/T; value of 1) versus wild-type or heterozygous (RFC-1 80G/G or 80G/A and GGH −401C/C or −401C/T; value of 0) as appropriate. Group comparisons were performed with the Kruskall-Wallis ANOVA. The likelihood of having MTXPG levels above group median was derived from the logistic regression model. Odds ratio (OR) and probability (P) are given with a 95% confidence interval (CI). Estimates are given with standard error.

SMILES	RBC MTXPG levels after injected MTX compared to oral administration
CN(Cc1cnc2nc(N)nc(N)c2n1)c1ccc(C(=O)N[C@@H](CCC(=O)O)C(=O)O)cc1 [MTX, methotrexate]	higher MTXPG levels

same assay, conditions: unadjusted, Kruskall-Wallis; FIG. 3

Change of RBC level with increased pharmacogenetic index (PI, from −1 to 1)	SMILES
increased	CN(Cc1cnc2nc(N)nc(N)c2n1)c1ccc(C(=O)N[C@@H](CCC(=O)N[C@@H](CCC(=O)N[C@@H](CCC(=O)O)C(=O)O)C(=O)O)C(=O)O)cc1 [MTXPG3]
no significant differences	CN(Cc1cnc2nc(N)nc(N)c2n1)c1ccc(C(=O)NC(CCC(=O)NC(CCC(=O)O)C(=O)O)C(=O)O)cc1 (stereo not drawn) [MTXPG2]
increased	CN(Cc1cnc2nc(N)nc(N)c2n1)c1ccc(C(=O)N[C@@H](CCC(=O)N[C@@H](CCC(=O)N[C@@H](CCC(=O)N[C@@H](CCC(=O)O)C(=O)O)C(=O)O)C(=O)O)C(=O)O)cc1 [MTXPG4]

Continued, compound first:

SMILES	Change of RBC level with increased pharmacogenetic index (PI, from −1 to 1)
CN(Cc1cnc2nc(N)nc(N)c2n1)c1ccc(C(=O)NC(CCC(=O)NC(CCC(=O)NC(CCC(=O)NC(CCC(=O)NC(CCC(=O)O)C(=O)O)C(=O)O)C(=O)O)C(=O)O)C(=O)O)cc1 (stereo not drawn) [MTXPG5]	increased
CN(Cc1cnc2nc(N)nc(N)c2n1)c1ccc(C(=O)N[C@@H](CCC(=O)O)C(=O)O)cc1 [MTX, methotrexate]	no significant differences
